# Measured values as given in the supplement of paper PMC10307832.
# Tests used:
# Assay in all cases: relative viability (nuclei count vs DMSO), 5 days (fraction); higher = more cells survive
# [1] = compound: CC1=C(C(=O)N2C=CSC2=N1)CCN3CCC(=C(C4=CC=CC=C4)C5=CC=C(C=C5)F)CC3 + COc1cc2c(Oc3ccc(NC(=O)C4(C(=O)Nc5ccc(F)cc5)CC4)cc3F)ccnc2cc1OCCCN1CCOCC1 [Foretinib] (partner 0.25 µM)
# How it was run: (§1)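 For relative viability, nuclei counts in treated wells were divided by those in vehicle wells. Lung cancer cell lines had been pin-tool dosed in 1536-well plates the day after seeding and cultured for 5 days, then fixed and stained in one step (final 0.05% Triton X-100, 1% formaldehyde, 1 ug/ml Hoechst) and imaged at 4×. Doses were one drug alone or a fixed anchor-drug dose plus five library-drug doses (not always all listed) in √10 steps, and values are duplicate-plate medians.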
# [2] = compound: CC1=C(C(=O)N2C=CSC2=N1)CCN3CCC(=C(C4=CC=CC=C4)C5=CC=C(C=C5)F)CC3 + CC1(C)CCC(c2ccc(Cl)cc2)=C(CN2CCN(c3ccc(C(=O)NS(=O)(=O)c4ccc(N[C@H](CCN5CCOCC5)CSc5ccccc5)c(S(=O)(=O)C(F)(F)F)c4)cc3)CC2)C1 [Navitoclax] (partner 0.5 µM)
# How it was run: as §1
# [3] = compound: CC1=C(C(=O)N2C=CSC2=N1)CCN3CCC(=C(C4=CC=CC=C4)C5=CC=C(C=C5)F)CC3 + C[C@]1(O)C[C@@H](c2nc(-c3ccc4ccc(-c5ccccc5)nc4c3)c3c(N)nccn32)C1 [Linsitinib] (partner 1 µM)
# How it was run: as §1
# [4] = compound: CC1=C(C(=O)N2C=CSC2=N1)CCN3CCC(=C(C4=CC=CC=C4)C5=CC=C(C=C5)F)CC3 + CCNC(=O)c1noc(-c2cc(C(C)C)c(O)cc2O)c1-c1ccc(CN2CCOCC2)cc1 [Luminespib] (partner 0.01 µM)
# How it was run: as §1
Cell Line,relative viability ([1]; first compound 0.08 µM),relative viability ([1]; first compound 0.253 µM),relative viability ([1]; first compound 0.8 µM),relative viability ([1]; first compound 2.53 µM),relative viability ([1]; first compound 8 µM),relative viability ([2]; first compound 0.08 µM),relative viability ([2]; first compound 0.253 µM),relative viability ([2]; first compound 0.8 µM),relative viability ([2]; first compound 2.53 µM),relative viability ([2]; first compound 8 µM),relative viability ([3]; first compound 0.08 µM),relative viability ([3]; first compound 0.253 µM),relative viability ([3]; first compound 0.8 µM),relative viability ([3]; first compound 2.53 µM),relative viability ([3]; first compound 8 µM),relative viability ([4]; first compound 0.08 µM),relative viability ([4]; first compound 0.253 µM),relative viability ([4]; first compound 0.8 µM),relative viability ([4]; first compound 2.53 µM),relative viability ([4]; first compound 8 µM)
201T,1.1,1.26,1.16,1.25,0.864,1.19,1.16,1.21,1.22,1.23,1.05,1.01,1,1.08,1.13,1.02,1.1,1.06,1.05,0.966
A549,0.954,0.982,1.03,0.97,0.763,1.32,1.19,1.3,1.37,0.673,,0.61,0.658,0.432,0.309,,,,,
A-427,1.08,1.1,1.16,1.15,1,1.08,0.877,0.915,0.973,0.948,1.06,1.05,1.13,1.17,0.959,0.91,0.919,0.923,1.15,0.88
ABC-1,1.03,1.18,0.958,0.869,0.635,,,,,,0.655,0.894,0.723,1.02,0.504,0.743,0.607,0.429,0.329,0.564
BEN,0.708,0.74,0.639,0.677,0.595,0.0374,0.0689,0.0632,0.23,0.108,0.781,0.967,1.07,0.847,0.79,0.439,0.33,0.308,0.308,0.35
CAL-12T,1.17,1.04,1.29,1.23,0.691,1.21,1.34,1.26,1.33,1.2,0.451,0.894,0.833,0.676,0.634,0.224,0.501,0.384,0.502,0.385
COR-L23,0.898,1.02,1.07,1.23,0.584,0.895,1.06,1.04,1.47,0.525,0.84,0.915,1.04,1.13,0.505,0.61,0.831,0.785,0.671,0.504
COR-L 105,0.574,1.05,1.02,1.56,0.761,0.765,0.708,0.724,0.808,0.634,0.892,0.832,1.05,0.96,0.597,0.673,0.817,0.798,0.809,0.659
ChaGo-K-1,0.884,1.04,1.04,0.942,0.548,1.19,0.888,0.663,1.69,1.11,,,,,,0.462,0.648,0.644,0.514,0.444
EKVX,0.671,1.04,0.815,0.855,0.677,0.718,0.775,0.961,0.848,0.741,0.999,1.05,1.09,0.951,0.839,0.768,0.915,0.936,0.871,0.825
EMC-BAC-2,0.945,0.982,0.981,1.12,0.972,0.906,0.95,1.28,1.16,0.707,0.8,0.804,0.882,0.825,0.627,1.23,1.15,1.28,1.16,1.03
EPLC-272H,0.658,0.622,0.657,0.677,0.576,,1.18,1.27,1.14,0.827,,1.17,1.2,1.09,0.984,0.276,0.227,0.197,0.423,0.268
H3255,0.818,0.891,0.734,0.886,0.707,0.416,0.393,0.557,0.542,0.419,1,0.888,1.02,1.03,0.726,0.796,0.892,0.786,0.961,0.709
HARA,1.19,0.98,0.956,0.942,0.649,1.18,1.33,1.16,1.23,0.537,0.956,1.09,1.08,0.917,0.54,0.682,0.73,0.688,0.477,0.426
HCC-15,1.06,0.995,1.16,1.07,0.774,0.697,0.601,0.762,0.791,0.528,0.931,0.931,0.942,1.04,0.744,0.444,0.321,0.22,0.444,0.293
HCC-44,,,,,,0.989,1.28,1.01,1.13,0.477,0.689,0.818,0.662,0.686,0.579,1.37,1.51,,1.3,0.736
HCC-78,0.547,0.522,0.513,0.534,0.522,0.834,0.786,0.924,0.838,0.608,0.547,0.499,0.518,0.54,0.443,,,,,
